Assays:
[1] = Bioavailability in ICR (CD-1) mouse at 50 mg/kg, ip measured for 24 hrs by LC-MS/MS analysis; assay type: ADME, organism-based; conditions: in vivo, ip, 50 mg/kg, 24 h
[2] = Cmax in ICR (CD-1) mouse at 50 mg/kg, ip measured for 24 hrs by LC-MS/MS analysis; assay type: ADME, organism-based; parameters: time 24 hrs, dose 50 mg/kg, route ip; conditions: in vivo
[3] = MRT (0 to t) in ICR (CD-1) mouse at 10 mg/kg, iv measured for 24 hrs by LC-MS/MS analysis; assay type: ADME, organism-based; conditions: in vivo
[4] = Volume of distribution at steady state in ICR (CD-1) mouse at 10 mg/kg, iv measured for 24 hrs by LC-MS/MS analysis; assay type: ADME, organism-based; conditions: in vivo
[5] = target: Tyrosine-protein kinase JAK2 (Homo sapiens, UniProt O60674); assay: Inhibition of JAK2 (unknown origin) incubated for 40 mins in presence of ATP by Kinase-glo luminescent assay
Chain of Tyrosine-protein kinase JAK2 (O60674 whole entry): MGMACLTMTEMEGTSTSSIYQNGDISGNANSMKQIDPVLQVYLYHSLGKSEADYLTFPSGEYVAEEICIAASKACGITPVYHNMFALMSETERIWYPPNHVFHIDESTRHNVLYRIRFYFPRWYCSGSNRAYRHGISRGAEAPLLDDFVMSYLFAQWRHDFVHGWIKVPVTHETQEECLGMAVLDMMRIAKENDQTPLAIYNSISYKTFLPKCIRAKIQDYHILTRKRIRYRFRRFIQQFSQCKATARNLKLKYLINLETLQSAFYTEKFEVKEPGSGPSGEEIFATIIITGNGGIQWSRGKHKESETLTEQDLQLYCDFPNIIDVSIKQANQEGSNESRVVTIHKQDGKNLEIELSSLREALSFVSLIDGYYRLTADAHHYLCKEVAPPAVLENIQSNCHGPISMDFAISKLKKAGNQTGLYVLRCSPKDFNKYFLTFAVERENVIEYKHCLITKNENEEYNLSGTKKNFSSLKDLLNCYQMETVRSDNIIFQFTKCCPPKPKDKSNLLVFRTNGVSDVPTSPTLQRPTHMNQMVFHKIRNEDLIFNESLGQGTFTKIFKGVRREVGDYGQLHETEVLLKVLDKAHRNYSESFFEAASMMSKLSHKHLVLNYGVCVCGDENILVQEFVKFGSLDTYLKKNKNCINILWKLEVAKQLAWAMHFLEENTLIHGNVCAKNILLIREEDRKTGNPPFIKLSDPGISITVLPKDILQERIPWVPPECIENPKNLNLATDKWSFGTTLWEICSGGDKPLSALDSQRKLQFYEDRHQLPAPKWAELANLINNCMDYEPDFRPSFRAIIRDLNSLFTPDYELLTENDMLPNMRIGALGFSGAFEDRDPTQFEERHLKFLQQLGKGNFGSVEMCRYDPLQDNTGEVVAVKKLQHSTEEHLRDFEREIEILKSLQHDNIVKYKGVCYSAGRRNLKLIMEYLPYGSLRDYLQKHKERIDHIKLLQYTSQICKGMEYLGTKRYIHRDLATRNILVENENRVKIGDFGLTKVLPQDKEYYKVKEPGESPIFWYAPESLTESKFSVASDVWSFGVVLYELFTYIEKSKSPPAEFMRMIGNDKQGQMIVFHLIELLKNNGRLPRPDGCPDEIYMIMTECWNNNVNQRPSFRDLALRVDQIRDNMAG

[6] = MRT (0 to t) in ICR (CD-1) mouse at 50 mg/kg, ip measured for 24 hrs by LC-MS/MS analysis; assay type: ADME, organism-based; conditions: in vivo
[7] = target: T1, Tyrosine-protein kinase JAK3 (Homo sapiens, UniProt P52333); assay: Inhibition of JAK3 (unknown origin) incubated for 40 mins in presence of ATP by Kinase-glo luminescent assay
T1 sequence (P52333 whole entry): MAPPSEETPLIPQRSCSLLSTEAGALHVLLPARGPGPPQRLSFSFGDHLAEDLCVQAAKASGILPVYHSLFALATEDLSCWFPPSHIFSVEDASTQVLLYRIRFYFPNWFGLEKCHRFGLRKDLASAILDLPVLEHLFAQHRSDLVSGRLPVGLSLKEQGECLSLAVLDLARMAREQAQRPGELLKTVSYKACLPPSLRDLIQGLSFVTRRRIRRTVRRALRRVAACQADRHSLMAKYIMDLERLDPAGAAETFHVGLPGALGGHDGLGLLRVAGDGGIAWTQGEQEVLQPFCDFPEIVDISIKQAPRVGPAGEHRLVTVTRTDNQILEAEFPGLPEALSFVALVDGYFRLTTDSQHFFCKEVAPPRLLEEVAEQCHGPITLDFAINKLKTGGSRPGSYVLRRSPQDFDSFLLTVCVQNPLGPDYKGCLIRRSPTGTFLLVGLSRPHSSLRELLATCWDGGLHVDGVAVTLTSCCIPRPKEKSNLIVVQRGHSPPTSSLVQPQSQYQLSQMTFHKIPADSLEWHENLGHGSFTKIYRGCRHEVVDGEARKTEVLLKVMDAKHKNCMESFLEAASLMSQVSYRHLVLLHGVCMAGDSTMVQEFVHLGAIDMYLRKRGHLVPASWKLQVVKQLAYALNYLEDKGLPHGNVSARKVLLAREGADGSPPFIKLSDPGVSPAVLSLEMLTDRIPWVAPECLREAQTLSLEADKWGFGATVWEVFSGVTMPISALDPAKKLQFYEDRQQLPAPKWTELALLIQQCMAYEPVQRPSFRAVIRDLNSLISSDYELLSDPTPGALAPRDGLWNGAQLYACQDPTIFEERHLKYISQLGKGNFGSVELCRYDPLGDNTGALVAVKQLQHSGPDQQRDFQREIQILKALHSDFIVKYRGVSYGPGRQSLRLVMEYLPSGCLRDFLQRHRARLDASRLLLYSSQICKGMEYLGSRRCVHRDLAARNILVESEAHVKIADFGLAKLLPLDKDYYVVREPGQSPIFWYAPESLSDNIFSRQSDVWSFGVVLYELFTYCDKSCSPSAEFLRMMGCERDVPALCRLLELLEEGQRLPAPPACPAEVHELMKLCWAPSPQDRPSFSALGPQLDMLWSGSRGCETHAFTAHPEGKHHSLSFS

[8] = target: T2, Receptor-type tyrosine-protein kinase FLT3 (Homo sapiens, UniProt P36888); assay: Inhibition of FLT3 (unknown origin) incubated for 40 mins in presence of ATP by Kinase-glo luminescent assay
T2 sequence (P36888 whole entry): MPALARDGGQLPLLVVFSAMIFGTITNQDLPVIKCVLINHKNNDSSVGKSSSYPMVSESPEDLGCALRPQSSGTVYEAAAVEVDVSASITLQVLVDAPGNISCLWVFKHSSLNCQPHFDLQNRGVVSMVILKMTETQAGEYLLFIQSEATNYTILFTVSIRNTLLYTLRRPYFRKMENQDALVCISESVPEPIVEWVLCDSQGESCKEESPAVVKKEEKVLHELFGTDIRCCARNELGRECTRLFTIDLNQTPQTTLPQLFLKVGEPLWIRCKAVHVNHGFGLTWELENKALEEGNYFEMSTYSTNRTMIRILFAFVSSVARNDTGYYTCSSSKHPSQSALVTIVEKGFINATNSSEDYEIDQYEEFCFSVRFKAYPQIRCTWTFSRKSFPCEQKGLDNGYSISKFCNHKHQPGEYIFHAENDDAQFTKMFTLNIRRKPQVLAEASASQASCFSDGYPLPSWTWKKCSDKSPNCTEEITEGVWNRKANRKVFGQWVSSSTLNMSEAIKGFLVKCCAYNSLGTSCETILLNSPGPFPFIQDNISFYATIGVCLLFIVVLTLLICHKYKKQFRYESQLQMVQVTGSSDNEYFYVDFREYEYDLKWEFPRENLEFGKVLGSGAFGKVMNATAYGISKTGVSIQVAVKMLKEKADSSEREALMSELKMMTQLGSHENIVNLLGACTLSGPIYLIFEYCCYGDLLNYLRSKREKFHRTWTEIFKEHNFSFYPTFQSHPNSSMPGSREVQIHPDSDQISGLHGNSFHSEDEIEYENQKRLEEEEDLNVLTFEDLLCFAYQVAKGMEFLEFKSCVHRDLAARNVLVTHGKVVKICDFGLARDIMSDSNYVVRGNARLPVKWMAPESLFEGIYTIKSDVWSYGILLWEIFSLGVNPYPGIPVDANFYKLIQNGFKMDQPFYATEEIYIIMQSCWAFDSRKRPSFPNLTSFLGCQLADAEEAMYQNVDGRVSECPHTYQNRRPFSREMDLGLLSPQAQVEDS

[9] = Half life in ICR (CD-1) mouse at 50 mg/kg, ip measured for 24 hrs by LC-MS/MS analysis; assay type: ADME, organism-based; conditions: in vivo
[10] = target: Proto-oncogene tyrosine-protein kinase receptor Ret (Homo sapiens, UniProt P07949); assay: Inhibition of RET (unknown origin) incubated for 40 mins in presence of ATP by Kinase-glo luminescent assay
Chain of Proto-oncogene tyrosine-protein kinase receptor Ret (P07949 whole entry): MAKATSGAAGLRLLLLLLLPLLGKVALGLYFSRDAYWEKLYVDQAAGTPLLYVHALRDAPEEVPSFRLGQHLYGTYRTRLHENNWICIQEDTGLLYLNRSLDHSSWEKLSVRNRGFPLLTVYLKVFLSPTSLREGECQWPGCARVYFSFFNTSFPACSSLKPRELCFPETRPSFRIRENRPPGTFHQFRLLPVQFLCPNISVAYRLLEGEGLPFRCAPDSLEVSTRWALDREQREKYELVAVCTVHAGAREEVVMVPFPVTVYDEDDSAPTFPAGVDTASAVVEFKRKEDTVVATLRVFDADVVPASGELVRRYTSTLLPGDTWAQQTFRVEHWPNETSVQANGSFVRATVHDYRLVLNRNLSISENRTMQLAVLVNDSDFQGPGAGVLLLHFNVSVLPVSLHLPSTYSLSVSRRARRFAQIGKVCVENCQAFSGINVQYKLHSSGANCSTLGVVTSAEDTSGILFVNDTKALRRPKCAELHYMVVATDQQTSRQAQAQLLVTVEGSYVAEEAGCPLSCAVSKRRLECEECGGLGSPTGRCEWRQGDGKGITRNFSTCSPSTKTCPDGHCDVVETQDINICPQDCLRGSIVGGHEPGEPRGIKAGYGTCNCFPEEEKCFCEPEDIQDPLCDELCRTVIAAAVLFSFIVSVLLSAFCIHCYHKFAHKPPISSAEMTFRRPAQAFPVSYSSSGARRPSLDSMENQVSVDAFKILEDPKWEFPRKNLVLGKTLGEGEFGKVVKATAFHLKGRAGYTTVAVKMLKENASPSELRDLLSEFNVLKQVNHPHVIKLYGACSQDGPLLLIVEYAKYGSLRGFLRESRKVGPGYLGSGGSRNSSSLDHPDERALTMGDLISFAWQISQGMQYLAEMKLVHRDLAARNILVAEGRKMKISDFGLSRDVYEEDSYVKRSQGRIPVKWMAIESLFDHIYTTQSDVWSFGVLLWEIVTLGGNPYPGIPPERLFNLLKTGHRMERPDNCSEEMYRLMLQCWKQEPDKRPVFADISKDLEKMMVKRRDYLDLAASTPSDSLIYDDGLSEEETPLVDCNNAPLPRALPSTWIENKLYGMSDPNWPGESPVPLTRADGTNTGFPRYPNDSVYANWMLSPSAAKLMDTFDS

SMILES: Cc1cnc(Nc2ccc(OCCN3CCCC3)cc2)nc1Nc1ccc(C(=O)NO)cc1
- F [1]: 151%
- Cmax [2]: 9560 ng/mL
- MRT(t) [3]: 1.66 h
- Vdss [4]: 8.84 L/kg
- IC50 [5]: 1.8 nM
- MRT last at 24 h [6]: 2.18 h
- IC50 [7]: 91 nM
- IC50 [8]: 10.9 nM
- half-life [9]: 2.51 h
- IC50 [10]: 47 nM
